In brackets after ≈: the same amount, converted by molar mass. Counter-ions that a name gives are not always drawn. Each block holds one compound with its values, some of them ahead of it.
Experiments:
physchem [1] = details: aqueous buffer solution, thermodynamic from solid
[2] = Thermal properties by TGA and DSC; format: physicochemical
From the text: Form A's basic thermal properties were studied by thermogravimetric analysis (TGA) and differential scanning calorimetry (DSC) and are as follows:

[3] = Equilibration of free base forms with solvents, XRPD; format: physicochemical
From the text: The solid part was investigated by XRPD.

physchem [4] = details: tetrahydrofuran/water (1:1), 25 °C, aqueous with cosolvent or surfactant or cyclodextrin, thermodynamic from solid
[5] = Hygroscopicity (water uptake); format: physicochemical; details: 25° C. up to 80% r.h.
[6] = pH of 1% solution or suspension in water; format: physicochemical; details: 1% in water
[7] = Intrinsic dissolution rate (rotating disk); format: physicochemical; details: for Intrinsic dissolution rate: 37° C., 200 rpm
Experimental: Intrinsic Dissolution Rate (IDR): Dissolution rate measurements were performed at 37° C. using the rotating disk method (VanKell Instrument). A single rotation speed of 200 rpm was used. For IDR in 0.1N HCl, an 800 mL volume, and for IDR in water, a 200 mL volume were used. The solution was continuously pumped through a UV measuring cell and recycled to the dissolution vessel.
The measurements were carried out on a VanKel instrument using a Cary 100 photometer.

[8] = Stability studies on storage; format: physicochemical; details: storage at various relative humidities
[9] = Compression with a hydraulic press, XRPD; format: physicochemical; details: 5 minutes at 10 tons, room temperature
[10] = Solubility by gravimetric techniques at different temperatures, residue by XRPD
[11] = Wetting with granulating solvent, XRPD; format: physicochemical; details: dried under vacuum
From the text: The material is vortexed between each addition. Then the material is dried under vacuum to <2% or less and evaluated for form and degree of crystallinity by XRPD or DSC.

[12] = Equilibration of hydrochloride form B with solvents (approximate solubility by gravimetry, form by XRPD); details: for Solubility: equilibrated at least 20 hours
[13] = Form conversion on exposure to solvent vapor, air, moisture or room conditions; format: physicochemical; details: in the presence of ethanol
[14] = Equilibration of hydrochloride forms A, B and C with solvents, XRPD; format: physicochemical
From the text: Then the solutions were filtered and the solid part investigated by XRPD.

[15] = thirteen solvents, one day, 25° C.
[16] = 0.1N HCl, 50° C., after 24 hours

Solubility (physchem [1]; pH 1, simulated gastric fluid): > 200 µg/mL
Decomposition temperature [2]: >300 °C
form transition on equilibration [3, 15]: No form transitions occurred
Solubility (physchem [4]): 1780 µg/mL (≈ 3360 µM)
hygroscopicity [5]: slightly hygroscopic
maximum water uptake [5]: less than 2%
Structure (SMILES): Cc1cn(-c2cc(NC(=O)c3ccc(C)c(Nc4nccc(-c5cccnc5)n4)c3)cc(C(F)(F)F)c2)cn1 [Form A of the free base]

Solubility (physchem [1]; pH 2.8, aqueous buffer): 2.8 µg/mL (≈ 5.29 µM)
pH of 1% solution or suspension in water ([6]; listed as Free base form B): 7.99
Decomposition temperature [2]: >300 °C
form transition on equilibration ([3]; seven solvents (methanol, ethanol, 2-propanol, ethyl acetate, acetone, tetrahydrofuran, acetonitrile), at least 48 hours, room temperature): No form transition occurred
Intrinsic dissolution rate ([7]; Water, listed as Free base form B): 0.0013 mg min^−1cm^−2
Intrinsic dissolution rate ([7]; pH 1 (0.1 N HCl)): 0.17 mg min^−1cm^−2
hygroscopicity [5]: not hygroscopic
maximum water uptake [5]: less than 0.2%
Structure (SMILES): Cc1cn(-c2cc(NC(=O)c3ccc(C)c(Nc4nccc(-c5cccnc5)n4)c3)cc(C(F)(F)F)c2)cn1 [Form B of the free base]
form transition on equilibration [3, 15]: No form transitions occurred with the exception of one trial of form B in water

form transition after storage [8]: No form transitions were observed
change of crystalline modification (by XRPD) after compression [9]: no change of crystalline modification
Solubility ([10]; 0.0001N HCl, 25° C., after 24 hours): 470 µg/mL
Solubility ([10]; 0.0001N HCl, 50° C., after 24 hours): 1320 µg/mL
Solubility ([10]; 0.001N HCl, 25° C., after 24 hours): 700 µg/mL
Solubility ([10]; 0.001N HCl, 50° C., after 24 hours): 1340 µg/mL
Solubility ([10]; 0.01N HCl, 25° C., after 24 hours): 690 µg/mL
Solubility ([10]; 0.01N HCl, 50° C., after 24 hours): 1440 µg/mL
Solubility ([10]; 0.1N HCl, 25° C., after 24 hours): 2360 µg/mL
Solubility [10, 16]: 6620 µg/mL
XRPD (form of the solid) [10, 16]: B + A
Solubility ([10]; Methanol, 25° C., after 24 hours): 14370 µg/mL
Solubility ([10]; Methanol, 50° C., after 24 hours): 52110 µg/mL
Solubility ([10]; Methanol/Water (95/5) v/v, 20° C., 10 minutes): 13640 µg/mL
Solubility ([10]; Methanol/Water (95/5) v/v, 20° C., 1 hour): 13430 µg/mL
Solubility ([10]; Methanol/Water (95/5) v/v, 20° C., 24 hours): 13010 µg/mL
Solubility ([10]; Methanol/Water (95/5) v/v, 45° C., 10 minutes): 34490 µg/mL
Solubility ([10]; Methanol/Water (95/5) v/v, 45° C., 1 hour): 38180 µg/mL
Solubility ([10]; Methanol/Water (95/5) v/v, 45° C., 24 hours): 41700 µg/mL
Solubility ([10]; Methanol/Water (95/5) v/v, −10° C., 10 minutes): 9420 µg/mL
Solubility ([10]; Methanol/Water (95/5) v/v, −10° C., 1 hour): 6650 µg/mL
Solubility ([10]; Methanol/Water (95/5) v/v, −10° C., 24 hours): 4850 µg/mL
Solubility ([10]; Methanol/Water (99.5/0.5) v/v, 20° C., 10 minutes): 12900 µg/mL
Solubility ([10]; Methanol/Water (99.5/0.5) v/v, 20° C., 1 hour): 13780 µg/mL
Solubility ([10]; Methanol/Water (99.5/0.5) v/v, 20° C., 24 hours): 12210 µg/mL
Solubility ([10]; Methanol/Water (99.5/0.5) v/v, 45° C., 10 minutes): 33290 µg/mL
Solubility ([10]; Methanol/Water (99.5/0.5) v/v, 45° C., 1 hour): 39390 µg/mL
Solubility ([10]; Methanol/Water (99.5/0.5) v/v, 45° C., 24 hours): 40400 µg/mL
Solubility ([10]; Methanol/Water (99.5/0.5) v/v, −10° C., 10 minutes): 7620 µg/mL
Solubility ([10]; Methanol/Water (99.5/0.5) v/v, −10° C., 1 hour): 5630 µg/mL
Solubility ([10]; Methanol/Water (99.5/0.5) v/v, −10° C., 24 hours): 4000 µg/mL
Solubility ([10]; Water, 25° C., after 24 hours): 1280 µg/mL
Solubility ([10]; Water, 50° C., after 24 hours): 1400 µg/mL
XRPD results after granulation ([11]; granulating solvent Ethanol): No change
XRPD results after granulation ([11]; granulating solvent Water): No change
pH of 1% solution or suspension in water ([6]; listed as Hydrochloride monohydrate (form B)): 2.53
Intrinsic dissolution rate ([7]; Water, listed as Hydrochloride monohydrate (form B)): 0.0024 mg min^−1cm^−2
Intrinsic Dissolution Rate value ([7]; dissolution medium HCl 0.0001 N): 0.0010 mg/min/cm^2
Intrinsic Dissolution Rate value ([7]; dissolution medium HCl 0.001 N): 0.0045 mg/min/cm^2
Intrinsic Dissolution Rate value ([7]; dissolution medium HCl 0.01 N): 0.0224 mg/min/cm^2
Intrinsic Dissolution Rate value ([7]; dissolution medium HCl 0.1 N): 0.1003 mg/min/cm^2
Intrinsic Dissolution Rate value ([7]; dissolution medium Water): 0.0001 mg/min/cm^2
Intrinsic dissolution rate ([7]; pH 1 (0.1 N HCl)): 0.17 mg min^−1cm^−2
Solubility ([12]; Acetonitrile, 25° C.): 0.3 mg/g
Solubility ([12]; Acetonitrile, 50° C.): 2.1 mg/g
Solubility ([12]; Acetonitrile-water 1:1, 25° C.): 10.3 mg/g
Solubility ([12]; DMSO, 50° C.): >27.5 mg/g
Solubility ([12]; Ethanol (96%), 25° C.): 3.9 mg/g
Solubility ([12]; Ethanol (96%), 50° C.): 22.4 mg/g
Solubility ([12]; Ethanol, 50° C.): 26.5 mg/g
Solubility ([12]; Ethanol-water 1:1, 50° C.): 17.2 mg/g
Solubility ([12]; Ethyl acetate, 25° C.): 0.3 mg/g
Solubility ([12]; Ethyl acetate, 50° C.): 3.0 mg/g
Solubility ([12]; Methanol, 25° C.): 16.3 mg/g
Form (XRPD) after equilibration ([12]; Methanol, 50° C., at least 20 hours): Solvate (as wet cake - dries to B)
Solubility ([12]; Methanol, 50° C.): >27.5 mg/g
Solubility ([12]; Propan-2-ol, 25° C.): 1.5 mg/g
Solubility ([12]; Propan-2-ol, 50° C.): 4.8 mg/g
Solubility ([12]; Tetrahydrofuran, 25° C.): 5.8 mg/g
Solubility ([12]; Tetrahydrofuran-water 1:1, 25° C.): 12.2 mg/g
Solubility ([12]; Toluene, 25° C.): 1.3 mg/g
Solubility ([12]; Toluene, 50° C.): 5.6 mg/g
form conversion [13]: converts to form A
form transition on equilibration ([14]; 10 different solvents (ethanol, methanol, water, ethanol/water 99:1, methanol/water 99:1 and 99.3:0.7, methanol/HCl 0.1N, diethylether, hexane, tetrahydrofuran), one day, 25° C.): No form transitions occurred
Structure (SMILES): Cc1cn(-c2cc(NC(=O)c3ccc(C)c(Nc4nccc(-c5cccnc5)n4)c3)cc(C(F)(F)F)c2)cn1 [Form B of the hydrochloride salt]
form transition on equilibration ([14]; ethanol, 50° C., 2 days): transitioned to a mixture of forms A and B

From patent US8829015B2 (Novartis AG, priority 2005, dated 2014)
